Reference: US20240415914A1, “Water Dispersible Cannabinoid Compositions” (priority 2021, published 2024)

Assay: Stability of cannabinoid and Vitamin E components of Beverage 1 (AB White) stored at 8° C. and 21-25° C., LCMSMS over 570 days
Assay type: physicochemical
Conditions: for Stability in AB White, 8° C. (content by LCMSMS): beverage stored at 8° C.; for Stability in AB White, 21-25° C. (content by LCMSMS): beverage stored at 21-25° C.
Method: The LCMSMS was calibrated for 0-1000 ng/ml cannabinoids with the same resin material used in the preparation of the concentrates. At each time period, 100 ml of beverage was diluted with 10 ml of methanol and injected into the LCMSMS for analysis.

SMILES: CCCCCc1cc(O)c2c(c1)OC(C)(C)c1ccc(C)cc1-2 [CBN, cannabinol]
- Stability in AB White, 8° C. (content by LCMSMS) (day 0): 2.79 µg/mL
- Stability in AB White, 8° C. (content by LCMSMS) (day 1): 2.77 µg/mL
- Stability in AB White, 8° C. (content by LCMSMS) (day 2): 2.72 µg/mL
- Stability in AB White, 8° C. (content by LCMSMS) (day 3): 2.73 µg/mL
- Stability in AB White, 8° C. (content by LCMSMS) (day 5): 2.76 µg/mL
- Stability in AB White, 8° C. (content by LCMSMS) (day 8): 2.75 µg/mL
- Stability in AB White, 8° C. (content by LCMSMS) (day 9): 2.76 µg/mL
- Stability in AB White, 8° C. (content by LCMSMS) (day 10): 2.79 µg/mL
- Stability in AB White, 8° C. (content by LCMSMS) (day 11): 2.71 µg/mL
- Stability in AB White, 8° C. (content by LCMSMS) (day 12): 2.80 µg/mL
- Stability in AB White, 8° C. (content by LCMSMS) (day 15): 2.79 µg/mL
- Stability in AB White, 8° C. (content by LCMSMS) (day 16): 2.77 µg/mL
- Stability in AB White, 8° C. (content by LCMSMS) (day 17): 2.82 µg/mL
- Stability in AB White, 8° C. (content by LCMSMS) (day 18): 2.71 µg/mL
- Stability in AB White, 8° C. (content by LCMSMS) (day 19): 2.71 µg/mL
- Stability in AB White, 8° C. (content by LCMSMS) (day 22): 2.76 µg/mL
- Stability in AB White, 8° C. (content by LCMSMS) (day 23): 2.71 µg/mL
- Stability in AB White, 8° C. (content by LCMSMS) (day 24): 2.75 µg/mL
- Stability in AB White, 8° C. (content by LCMSMS) (day 25): 2.75 µg/mL
- Stability in AB White, 8° C. (content by LCMSMS) (day 26): 2.76 µg/mL
- Stability in AB White, 8° C. (content by LCMSMS) (day 29): 2.76 µg/mL
- Stability in AB White, 8° C. (content by LCMSMS) (day 30): 2.78 µg/mL
- Stability in AB White, 8° C. (content by LCMSMS) (day 60): 2.68 µg/mL
- Stability in AB White, 8° C. (content by LCMSMS) (day 90): 2.74 µg/mL
- Stability in AB White, 8° C. (content by LCMSMS) (day 120): 2.72 µg/mL
- Stability in AB White, 8° C. (content by LCMSMS) (day 150): 2.69 µg/mL
- Stability in AB White, 8° C. (content by LCMSMS) (day 180): 2.77 µg/mL
- Stability in AB White, 8° C. (content by LCMSMS) (day 210): 2.75 µg/mL
- Stability in AB White, 8° C. (content by LCMSMS) (day 240): 2.70 µg/mL
- Stability in AB White, 8° C. (content by LCMSMS) (day 270): 2.75 µg/mL
- Stability in AB White, 8° C. (content by LCMSMS) (day 300): 2.71 µg/mL
- Stability in AB White, 8° C. (content by LCMSMS) (day 330): 2.75 µg/mL
- Stability in AB White, 8° C. (content by LCMSMS) (day 360): 2.68 µg/mL
- Stability in AB White, 8° C. (content by LCMSMS) (day 390): 2.67 µg/mL
- Stability in AB White, 8° C. (content by LCMSMS) (day 420): 2.70 µg/mL
- Stability in AB White, 8° C. (content by LCMSMS) (day 450): 2.70 µg/mL
- Stability in AB White, 8° C. (content by LCMSMS) (day 480): 2.66 µg/mL
- Stability in AB White, 8° C. (content by LCMSMS) (day 510): 2.60 µg/mL
- Stability in AB White, 8° C. (content by LCMSMS) (day 540): 2.56 µg/mL
- Stability in AB White, 8° C. (content by LCMSMS) (day 570): 2.56 µg/mL
- Stability in AB White, 21-25° C. (content by LCMSMS) (day 0): 2.79 µg/mL
- Stability in AB White, 21-25° C. (content by LCMSMS) (day 1): 2.79 µg/mL
- Stability in AB White, 21-25° C. (content by LCMSMS) (day 2): 2.81 µg/mL
- Stability in AB White, 21-25° C. (content by LCMSMS) (day 3): 2.73 µg/mL
- Stability in AB White, 21-25° C. (content by LCMSMS) (day 5): 2.80 µg/mL
- Stability in AB White, 21-25° C. (content by LCMSMS) (day 8): 2.71 µg/mL
- Stability in AB White, 21-25° C. (content by LCMSMS) (day 9): 2.78 µg/mL
- Stability in AB White, 21-25° C. (content by LCMSMS) (day 10): 2.77 µg/mL
- Stability in AB White, 21-25° C. (content by LCMSMS) (day 11): 2.80 µg/mL
- Stability in AB White, 21-25° C. (content by LCMSMS) (day 12): 2.75 µg/mL
- Stability in AB White, 21-25° C. (content by LCMSMS) (day 15): 2.81 µg/mL
- Stability in AB White, 21-25° C. (content by LCMSMS) (day 16): 2.75 µg/mL
- Stability in AB White, 21-25° C. (content by LCMSMS) (day 17): 2.70 µg/mL
- Stability in AB White, 21-25° C. (content by LCMSMS) (day 18): 2.78 µg/mL
- Stability in AB White, 21-25° C. (content by LCMSMS) (day 19): 2.73 µg/mL
- Stability in AB White, 21-25° C. (content by LCMSMS) (day 22): 2.69 µg/mL
- Stability in AB White, 21-25° C. (content by LCMSMS) (day 23): 2.68 µg/mL
- Stability in AB White, 21-25° C. (content by LCMSMS) (day 24): 2.79 µg/mL
- Stability in AB White, 21-25° C. (content by LCMSMS) (day 25): 2.75 µg/mL
- Stability in AB White, 21-25° C. (content by LCMSMS) (day 26): 2.69 µg/mL
- Stability in AB White, 21-25° C. (content by LCMSMS) (day 29): 2.75 µg/mL
- Stability in AB White, 21-25° C. (content by LCMSMS) (day 30): 2.72 µg/mL
- Stability in AB White, 21-25° C. (content by LCMSMS) (day 60): 2.63 µg/mL
- Stability in AB White, 21-25° C. (content by LCMSMS) (day 90): 2.66 µg/mL
- Stability in AB White, 21-25° C. (content by LCMSMS) (day 120): 2.67 µg/mL
- Stability in AB White, 21-25° C. (content by LCMSMS) (day 150): 2.77 µg/mL
- Stability in AB White, 21-25° C. (content by LCMSMS) (day 180): 2.68 µg/mL
- Stability in AB White, 21-25° C. (content by LCMSMS) (day 210): 2.74 µg/mL
- Stability in AB White, 21-25° C. (content by LCMSMS) (day 240): 2.71 µg/mL
- Stability in AB White, 21-25° C. (content by LCMSMS) (day 270): 2.67 µg/mL
- Stability in AB White, 21-25° C. (content by LCMSMS) (day 300): 2.73 µg/mL
- Stability in AB White, 21-25° C. (content by LCMSMS) (day 330): 2.75 µg/mL
- Stability in AB White, 21-25° C. (content by LCMSMS) (day 360): 2.67 µg/mL
- Stability in AB White, 21-25° C. (content by LCMSMS) (day 390): 2.66 µg/mL
- Stability in AB White, 21-25° C. (content by LCMSMS) (day 420): 2.62 µg/mL
- Stability in AB White, 21-25° C. (content by LCMSMS) (day 450): 2.61 µg/mL
- Stability in AB White, 21-25° C. (content by LCMSMS) (day 480): 2.57 µg/mL
- Stability in AB White, 21-25° C. (content by LCMSMS) (day 510): 2.66 µg/mL
- Stability in AB White, 21-25° C. (content by LCMSMS) (day 540): 2.63 µg/mL
- Stability in AB White, 21-25° C. (content by LCMSMS) (day 570): 2.56 µg/mL
